Data reported in US20240382484A1, “COMPOSITION FOR TREATING, PREVENTING, OR AMELIORATING MELANOMA AND METHOD THEREOF” (Thomas Jefferson University, priority 2021, published 2024).

Tests used:
[1] = test system: WM1361A and WM1366 cells; experiment: Reverse-phase protein array and immunoblot analysis; assay type: cell-based, human; settings: immunoblot, 24 hours
Description: FIG. 15A: Reverse-phase protein array analysis of WM1361A and WM1366 cells. The cells were treated with vehicle (DMSO), either pharmacologic inhibition or genetic depletion of PDPK1 only, MEK inhibitor only and the combinations as indicated. All samples were harvested in three biological independent experiments. Proteins levels were normalized to the mean. Antibodies were limited to those that were differentially expressed (BHFDR <0.05) in at least three of the four comparisons between combination and control samples. FIG. 15B: WM1361A and WM1366 cells were treated with PD0325901 and GSK2334470 as indicated for 24 hours. Cell lysates were applied to immunoblot with indicated antibodies. FIG. 15C: WM1361A and WM1366 parental clones (iCas9) and PDPK1-depleted clones by two individual sgRNAs (KO1 and K02) treated with trametinib as indicated for 24 hours. Cell lysates were applied to immunoblot with indicated antibodies.
WM1361A and WM1366 cells were treated with vehicle control, PDPK1i (GSK2334470), MEKi (trametinib) or combined PDPK1i and MEKi for 48 hours. WM1361A and WM1366 cells were also transfected with ON-target control siRNAs or PDPK1 siRNAs, and then treated with or without trametinib for further 48 hours. Cells were harvested, lysed and analyzed as described in Tibes et al. (Mol Cancer Ther 5, 2512-2521, 2006). […]

[2] = test system: 1014 cells; experiment: 1014 cell growth for 7 days monitored by IncuCyte; assay type: cell-based, mouse; settings: in vitro
[3] = test system: Nras Q61K mouse melanoma isografts of 1014 cells; experiment: 1014 allograft model in immunocompetent B6 mice; assay type: in vivo; settings: trametinib chow and/or GSK2334470 injection three times per week

O=C(NOC[C@H](O)CO)c1ccc(F)c(F)c1Nc1ccc(I)cc1F [PD0325901, (R)—N-(2,3-dihydroxypropoxy)-3,4-difluoro-2-((2-fluoro-4-iodophenyl)amino)benzamide] was tested, and the “p-S6, second MEKi with PDPK1i or sgRNA PDPK1 depletion” value [1] was “enhanced reduction”.

CC(=O)Nc1cccc(-n2c(=O)n(C3CC3)c(=O)c3c(Nc4ccc(I)cc4F)n(C)c(=O)c(C)c32)c1 [trametinib, N-(3-(3-cyclopropyl-5-((2-fluoro-4-iodophenyl)amino)-6,8-dimethyl-2,4,7-trioxo-3,4,6,7-tetrahydropyrido[4,3-d]pyrimidin-1(2H)-yl)phenyl)acetamide] was tested, and the 1014 cell proliferation [2] was “suppressed” and the tumor growth [3] was “modest delay of tumor growth”.
